Article PMC5222342, “Leukotriene B₄ Metabolism and p70S6 Kinase 1 Inhibitors: PF-4708671 but Not LY2584702 Inhibits CYP4F3A and the ω-Oxidation of Leukotriene B₄ In Vitro and In Cellulo” (PLoS ONE, 2017)

Assays:
CYP4F3A [1] = target: T1, CYP4F3A (Homo sapiens, UniProt Q08477); parameters: gene CYP4F3
T1 sequence (Q08477 1-520): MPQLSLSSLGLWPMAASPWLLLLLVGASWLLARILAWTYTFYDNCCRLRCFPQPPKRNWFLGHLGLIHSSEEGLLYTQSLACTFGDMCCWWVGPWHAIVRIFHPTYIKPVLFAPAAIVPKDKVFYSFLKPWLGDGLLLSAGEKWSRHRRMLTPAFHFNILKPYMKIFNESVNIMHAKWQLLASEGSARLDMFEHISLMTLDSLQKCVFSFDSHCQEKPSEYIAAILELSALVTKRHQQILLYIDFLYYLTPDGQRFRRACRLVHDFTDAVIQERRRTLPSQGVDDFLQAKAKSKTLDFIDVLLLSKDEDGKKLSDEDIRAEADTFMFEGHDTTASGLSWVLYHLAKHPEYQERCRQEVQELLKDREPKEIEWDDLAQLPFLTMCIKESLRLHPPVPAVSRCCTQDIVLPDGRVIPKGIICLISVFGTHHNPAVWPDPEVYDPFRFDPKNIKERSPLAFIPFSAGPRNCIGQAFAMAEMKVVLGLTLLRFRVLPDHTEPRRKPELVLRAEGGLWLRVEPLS

CYP4F3A [2] = target: T1, CYP4F3A; test: recombinant CYP4F3A LTB4 omega-oxidation assay, HPLC; Michaelis-Menten and Lineweaver-Burk kinetics; type: biochemical; parameters: gene CYP4F3; human recombinant CYP4F3A

| IC50 (CYP4F3A [2]) | Structure (SMILES) | omega-oxidation of LTB4 (1-20 uM) by recombinant CYP4F3A, HPLC, Michaelis-Menten (CYP4F3A [1]) |
| --- | --- | --- |
|  | CCCCC/C=C\C[C@@H](O)/C=C/C=C/C=C\[C@@H](O)CCCC(=O)O [LTB4] | Human recombinant CYP4F3A was incubated with increasing concentrations of PF-4708671 before the addition of LTB4 at different concentrations |
| ~0.75 µM | CCc1cncnc1N1CCN(Cc2nc3cc(C(F)(F)F)ccc3[nH]2)CC1 [PF-4708671] |  |
